Experimental data: PubChem BioAssay AID1963959 (Molecular Pharmacology Branch, DTP, NCI, 2024)

Tested on: T-47D spheroids with HUVEC/MSC, viability
Assay: Anticancer human tumor T-47D cell line growth inhibition [PI3K];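 note: spheroids exposed to agents for seven days before reading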;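 for viability, T/C: percent of DMSO vehicle control luminescence so 100% = untreated growth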
Conditions: for IC50: curve of first compound; for viability, T/C: stronger effect = lower value; active = viability on the fitted dose curve at most 10% of control; inactive = the rest
Procedure, shortened: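 Three cell types, namely tumor cells, endothelial cells and mesenchymal stem cells, formed each spheroid. Combinations with four PI3K inhibitors were screened at clinically achievable concentrations decreasing by half-log, and spheroid viability was recorded.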

[1] = second compound 0.00316 µM, first compound 0.0316 µM
[2] = second compound 0.00316 µM, first compound 0.1 µM
[3] = second compound 0.01 µM, first compound 0.0316 µM
[4] = second compound 0.01 µM, first compound 0.1 µM
[5] = second compound 0.0316 µM, first compound 0.0316 µM
[6] = second compound 0.0316 µM, first compound 0.1 µM
[7] = second compound 0.1 µM, first compound 0.0316 µM
[8] = second compound 0.1 µM, first compound 0.1 µM
[9] = second compound 0.316 µM, first compound 0.0316 µM
[10] = second compound 0.316 µM, first compound 0.1 µM
[11] = second compound 1 µM, first compound 0.0316 µM
[12] = second compound 1 µM, first compound 0.1 µM
[13] = second compound 0.00316 µM, first compound 0.316 µM
[14] = second compound 0.00316 µM, first compound 1 µM
[15] = second compound 0.00316 µM, first compound 3.16 µM
[16] = second compound 0.00316 µM, first compound 10 µM
[17] = second compound 0.01 µM, first compound 0.316 µM
[18] = second compound 0.01 µM, first compound 1 µM
[19] = second compound 0.01 µM, first compound 3.16 µM
[20] = second compound 0.01 µM, first compound 10 µM
[21] = second compound 0.0316 µM, first compound 0.316 µM
[22] = second compound 0.0316 µM, first compound 1 µM
[23] = second compound 0.0316 µM, first compound 3.16 µM
[24] = second compound 0.0316 µM, first compound 10 µM
[25] = second compound 0.1 µM, first compound 0.316 µM
[26] = second compound 0.1 µM, first compound 1 µM
[27] = second compound 0.1 µM, first compound 3.16 µM
[28] = second compound 0.1 µM, first compound 10 µM
[29] = second compound 0.316 µM, first compound 0.316 µM
[30] = second compound 0.316 µM, first compound 1 µM
[31] = second compound 0.316 µM, first compound 3.16 µM
[32] = second compound 0.316 µM, first compound 10 µM
[33] = second compound 1 µM, first compound 0.316 µM
[34] = second compound 1 µM, first compound 1 µM
[35] = second compound 1 µM, first compound 3.16 µM
[36] = second compound 1 µM, first compound 10 µM

Cn1ncnc1[C@H]1c2n[nH]c(=O)c3cc(F)cc(c23)N[C@@H]1c1ccc(F)cc1 + CC(Nc1ccc2c(c1)OCCn1cc(N3C(=O)OCC3C(F)F)nc1-2)C(N)=O
> 0.1 µM: IC50 (second compound 0.00316 µM) | IC50 (second compound 0.01 µM) | IC50 (second compound 0.0316 µM) | IC50 (second compound 0.1 µM) | IC50 (second compound 0.316 µM) | IC50 (second compound 1 µM)
inactive: viability, T/C (second compound 0.00316 µM, first compound 0.000316 µM) 88.8% | viability, T/C (second compound 0.00316 µM, first compound 0.001 µM) 82.8% | viability, T/C (second compound 0.00316 µM, first compound 0.00316 µM) 109% | viability, T/C (second compound 0.00316 µM, first compound 0.01 µM) 86.9% | viability, T/C [1] 96.3% | viability, T/C [2] 112% | viability, T/C (second compound 0.01 µM, first compound 0.000316 µM) 113% | viability, T/C (second compound 0.01 µM, first compound 0.001 µM) 78.7% | viability, T/C (second compound 0.01 µM, first compound 0.00316 µM) 80.3% | viability, T/C (second compound 0.01 µM, first compound 0.01 µM) 96.2% | viability, T/C [3] 91.3% | viability, T/C [4] 89.4% | viability, T/C (second compound 0.0316 µM, first compound 0.000316 µM) 108% | viability, T/C (second compound 0.0316 µM, first compound 0.001 µM) 74.7% | viability, T/C (second compound 0.0316 µM, first compound 0.00316 µM) 88.8% | viability, T/C (second compound 0.0316 µM, first compound 0.01 µM) 85% | viability, T/C [5] 81.2% | viability, T/C [6] 75.8% | viability, T/C (second compound 0.1 µM, first compound 0.000316 µM) 79.2% | viability, T/C (second compound 0.1 µM, first compound 0.001 µM) 76.7% | viability, T/C (second compound 0.1 µM, first compound 0.00316 µM) 78.3% | viability, T/C (second compound 0.1 µM, first compound 0.01 µM) 81.6% | viability, T/C [7] 86.5% | viability, T/C [8] 76.2% | viability, T/C (second compound 0.316 µM, first compound 0.000316 µM) 77.1% | viability, T/C (second compound 0.316 µM, first compound 0.001 µM) 80.1% | viability, T/C (second compound 0.316 µM, first compound 0.00316 µM) 57.1% | viability, T/C (second compound 0.316 µM, first compound 0.01 µM) 65.6% | viability, T/C [9] 62.3% | viability, T/C [10] 61.9% | viability, T/C (second compound 1 µM, first compound 0.000316 µM) 61.5% | viability, T/C (second compound 1 µM, first compound 0.001 µM) 48.5% | viability, T/C (second compound 1 µM, first compound 0.00316 µM) 54.2% | viability, T/C (second compound 1 µM, first compound 0.01 µM) 58% | viability, T/C [11] 55.2% | viability, T/C [12] 49.8%

CC(C)NCC(C(=O)N1CCN(c2ncnc3c2C(C)CC3O)CC1)c1ccc(Cl)cc1 (stereo unspecified) + CC(Nc1ccc2c(c1)OCCn1cc(N3C(=O)OCC3C(F)F)nc1-2)C(N)=O
> 10 µM: IC50 (second compound 0.01 µM) | IC50 (second compound 0.0316 µM)
2.42 µM: IC50 (second compound 0.316 µM)
3.89 µM: IC50 (second compound 0.1 µM)
inactive: viability, T/C [1] 109% | viability, T/C [2] 96.1% | viability, T/C [13] 82.7% | viability, T/C [14] 80.5% | viability, T/C [15] 60.5% | viability, T/C [16] 48% | viability, T/C [3] 94.5% | viability, T/C [4] 94.2% | viability, T/C [17] 91% | viability, T/C [18] 73.6% | viability, T/C [19] 66.6% | viability, T/C [20] 59% | viability, T/C [5] 102% | viability, T/C [6] 95.5% | viability, T/C [21] 84.7% | viability, T/C [22] 68.5% | viability, T/C [23] 53.7% | viability, T/C [24] 51.6% | viability, T/C [7] 94.1% | viability, T/C [8] 81.2% | viability, T/C [25] 75.7% | viability, T/C [26] 59.3% | viability, T/C [27] 51.8% | viability, T/C [28] 43.6% | viability, T/C [9] 63.2% | viability, T/C [10] 64% | viability, T/C [29] 56.7% | viability, T/C [30] 53.5% | viability, T/C [31] 50.1% | viability, T/C [32] 41.6% | viability, T/C [11] 51.7% | viability, T/C [12] 46.8% | viability, T/C [33] 52.2% | viability, T/C [34] 41.4% | viability, T/C [35] 42.3% | viability, T/C [36] 44.3%
8.76 µM: IC50 (second compound 0.00316 µM)
0.0626 µM: IC50 (second compound 1 µM)

C=CC(=O)N1CCN(c2nc(=O)n(-c3c(C)ccnc3C(C)C)c3nc(-c4c(O)cccc4F)c(F)cc23)C(C)C1 (stereo unspecified) + CC(Nc1ccc2c(c1)OCCn1cc(N3C(=O)OCC3C(F)F)nc1-2)C(N)=O
> 10 µM: IC50 (second compound 0.00316 µM) | IC50 (second compound 0.01 µM) | IC50 (second compound 0.0316 µM) | IC50 (second compound 0.1 µM) | IC50 (second compound 0.316 µM)
< 0.0316 µM: IC50 (second compound 1 µM)
inactive: viability, T/C [1] 87.5% | viability, T/C [2] 103% | viability, T/C [13] 78.8% | viability, T/C [14] 86.3% | viability, T/C [15] 97.3% | viability, T/C [16] 113% | viability, T/C [3] 104% | viability, T/C [4] 67.8% | viability, T/C [17] 106% | viability, T/C [18] 84.8% | viability, T/C [19] 99.9% | viability, T/C [20] 92.1% | viability, T/C [5] 99% | viability, T/C [6] 84.8% | viability, T/C [21] 95.9% | viability, T/C [22] 98% | viability, T/C [23] 88.2% | viability, T/C [24] 88.3% | viability, T/C [7] 81.2% | viability, T/C [8] 83.6% | viability, T/C [25] 83.8% | viability, T/C [26] 98.5% | viability, T/C [27] 82.9% | viability, T/C [28] 96.8% | viability, T/C [9] 71.2% | viability, T/C [10] 73.3% | viability, T/C [29] 77% | viability, T/C [30] 74.5% | viability, T/C [31] 75.9% | viability, T/C [32] 79.2% | viability, T/C [11] 48.5% | viability, T/C [12] 47.2% | viability, T/C [33] 59% | viability, T/C [34] 54.2% | viability, T/C [35] 63.4% | viability, T/C [36] 67.2%
